Source: PMC4860888 (Theranostics, 2016)

Tests used:
HDAC = conditions: cited from earlier work
[1] = system: AK7 murine mesothelioma cells; assay type: in vivo, C57Bl/6 mice; conditions: decitabine 4 µg/g i.p. days 7 and 9

SMILES | Fold less potent than (R)-trichostatin A (HDAC) | Anti-tumor effect by itself [1]
CC(C=CC(=O)NO)=C[C@H](C)C(=O)c1ccc(N(C)C)cc1 [(S)-isomer] | 70 fold | –
Nc1ncn([C@H]2C[C@H](O)[C@@H](CO)O2)c(=O)n1 [decitabine] | – | no anti-tumor effect
